# Measured values published in patent EP1459757A1, “Immunomodulating polymers” (THE BRIGHAM AND WOMEN'S HOSPITAL, INC., priority 1999, dated 2004).
# What was measured:
# B. fragilis NCTC 9343 = experiment: Rat model of intraabdominal sepsis, abscess formation after B. fragilis challenge; assay type: in vivo
# Procedure: The rat model of intraabdominal sepsis used in this study has been described previously. […] Briefly, male Wistar or Lewis rats (Charles River Laboratories, Wilmington, MA) weighing between 180 and 200 g were housed separately and received chow (Ralston Purina, St. Louis, MO) and water ad libitum. Animals were anesthetized with a single intraperitoneal injection of 0.15 ml of Nembutal (50 mg/ml; Abbott Laboratories, North Chicago, IL), and their abdomens were shaved and swabbed with a tincture of iodine. An anterior midline incision (0.5-1.0 cm) was made through the abdominal wall and peritoneum, and a gelatin capsule containing 0.5 ml of inoculum was inserted into the pelvis. The inoculum contained either B. fragilis NCTC 9343 (10^8 cfu/animal), S. aureus PS 80 (10^7 cfu/animal), or purified test polysaccharide, mixed 1:1 with an adjuvant solution containing sterile rat cecal contents and 10% barium sulfate (w/v) as previously described. […] The incisions were closed with interrupted 3.0 silk sutures, and the animals were returned to the cages.
# Six days later animals were necropsied in a blinded fashion and examined for the formation of one or more intraabdominal abscesses by an observer blinded to the experimental groups.
# This example addresses whether zwitterionic (K-D)n peptides could protect animals against abscess formation in vivo, using the abdominal sepsis model in Example 1.
# The effect of the peptide repeating unit size on protection was examined. Animals were treated according to the regimen described above with a 50 µg/dose of each repeating unit size (Table 2).
# human T cells = experiment: T cell proliferation assay (3H-thymidine uptake); assay type: cell-based; conditions: 20 µg/ml; 6 days post-incubation (Figure 6)
# Procedure: T cell proliferation assays were performed on cells obtained from human leukopacs (discarded white cells from anonymous platelet donors). Mononuclear cells were separated by ficoll-hypaque sedimentation to eliminate red cells and polymorphonuclear leukocytes. The mononuclear layer, which consisted of T cells, B cells, and mononuclear cells, was depleted of B cells and monocytes by passage over nylon wool column. A portion of these cells was saved prior to placement on nylon wool and were used as autologous feeder cells following irradiation with 6.4 kRads with a cesium source for 4.8 min. Nylon passed cells, which were greater than 98% CD3 positive (as determined by FACS analysis) were used as responder cells or further depleted with antibodies to CD4 (OKT4) or CD8 (OKT8) followed by negative selection with magnetic beads. Finberg, RW et al. J Immunol 149:2055 (1992); Haregewoin, A et al. Nature 340:309 (1989). […] Cells were washed extensively, harvested, and the amount of radioactive uptake counted by liquid scintillation. […] Data were expressed as the average of triplicate wells ± the standard error of cpm represented. […]
# Following the T cell proliferation assay of Example 2, K-D peptides (20 µg/ml) of varying size were assessed for their ability to stimulate T cell activation 6 days post-incubation. […]
# [1] = Table 1 Experiment A, 50 µg subcutaneous at -24, 0, +24 h, B. fragilis 1 x 10^8 cfu/rat, six days later
substance,measurement,setting,value
poly-L-lysine,protection against abscess formation compared with saline-treated animals,"B. fragilis NCTC 9343; 50 µg/dose subcutaneous, B. fragilis challenge",did not protect against abscess formation
same,Abscess formation (%),B. fragilis NCTC 9343; [1],80%
same,No. animals with abscess/total,B. fragilis NCTC 9343; [1],8/10
same,T cell activation by K-D peptides of varying size,human T cells,did not stimulate T cell proliferation
